Experimental data reported in patent US20250281424A1 (New York Blood Center, Inc, priority 2020, published 2025).

Target: T1, human PF4 (Homo sapiens, UniProt P02776)
T1 construct: PF4 is a 70 amino acid, lysine-rich 7.8 kDa platelet-specific protein; made in house; host or cells: Escherichia coli BL21DE3 pLysS (pT7-7) and/or Drosophila S2 cells
T1 sequence (P02776 32-101): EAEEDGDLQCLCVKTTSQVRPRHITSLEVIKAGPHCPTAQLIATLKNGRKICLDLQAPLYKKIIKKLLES
Assay: Inhibition of PF4 tetramer formation (BS3 cross-linking, SDS-PAGE)
Format: biochemical
Conditions: for inhibition at 5 µM: 5 μM inhibitor; for inhibition at 5 µM / inhibition at 10 µM / inhibition at 1 µM / inhibition at 3 µM: read-out: % inhibition of PF4 tetramer formation at single concentration of inhibitor; for inhibition at 10 µM: 10 μM inhibitor (column A); for IC50: read-out: IC50 of PF4 tetramer formation inhibition; for inhibition at 1 µM: 1 μM inhibitor; for inhibition at 3 µM: 3 μM inhibitor (column A)
Experimental: Compounds of Examples 1-38, 65-301, 303, 305, 307, 309, 311, 313, 314, 316, and 318-404 were tested using SDS PAGE analysis of BS3 crosslinked PF4 for their ability to prevent PF4 tetramer formation. […] See, Suvarna et al., Throm. Res, 122:211-220 (2008), which is hereby incorporated by reference, at least for a detailed description of this technique.
cDNA encoding human PF4 was cloned into the plasmid μMT/BiPN5-His A (Invitrogen Corp., Carlsbad CA) for expression in the Drosophila Expression System (Invitrogen, Carlsbad, CA). Cloning was performed using Bg1 II and Age I cloning sites. A hexanucleotide encoding Bg1 II site was then eliminated by site-directed mutagenesis so that the expressed protein contained full-length wild type (wt) PF4 or PF4^K50E with an identical sequence as their counterparts expressed in E. coli. See, method described in Sachais et al (Sachais, B. S. et al. (2012). Blood 119(25): 5955-5961). PF4 expression was induced by adding copper sulfate (0.5 mM). The induced S2 cells were incubated in serumfree Insect-Xpress™ media (Lonza, Walkersville, MD) for 3-5 days; supernatants were collected, sodium azide (0.02% final concentration) and EDTA (2.5 mM final concentration) were added, and the media were filtered through an Express® PLUS 0.22 μm filter (Millipore Corp., Billerica, MA).
Wild-type (WT) human PF4 in the pT7-7 vector (Novagen, Madison, WI) was expressed in the Escherichia coli strain BL21DE30 pLysS (Stratagene, La Jolla, CA), and purified and characterized as described by Rauova et al. (Rauova, L. et al. (2006). Blood 107(6): 2346-2353) and Park et al., (Blood, 75:1290-1295 (1990)), which are hereby incorporated by reference. Briefly, recombinant protein was isolated from the supernatant of the bacterial lysate by affinity chromatography using a HiTrap high-performance (HP) affinity column. WT PF4 was purified from the media on a heparin HiTrap® column on an ÄTKAPrime™ system (GE Healthcare) at 4° C. in Tris (10 mM), EDTA (1 mM), and pH 8 buffer. Media was loaded in buffer containing NaCl (0.5 M) and PF4 was eluted at 1.8 M NaCl using a linear gradient. Fractions containing purified PF4 as detected by silver staining of 12% NuPAGE Bis-Tris gels (Invitrogen) were pooled, concentrated and buffer exchanged into 50 mM HEPES, 0.5 M NaCl, pH—7.2 using an Amicon® Ultra centrifugal filter (3K NMWL, Millipore Corp). Protein was quantified using a BCA assay.
Compounds of Examples 1-38, 65-196, and 209-228 were then tested for their ability to inhibit PF4 tetramer formation using a cross-linking assay as described in Rauova cited above. Specifically, hPF4 (10 μg/ml) in phosphate-buffered saline (PBS) was incubated at 37° C. for 15 min in the absence of the antagonistic compounds (control sample) and presence of compounds. Cross-linking and SDS-PAGE analysis were then performed as described in “Analysis of PF4 multimerization” of Rauova. The relative amounts of PF4 in each of the monomer, dimer, trimer and tetramer form were calculated by analyzing the samples on a 12% SDS-polyacrylamide gel under reducing conditions. Bands were quantified using the Kodak ID Image Analysis system (Kodak, Rochester, NY). The SigmaMarker™ reagent served as the molecular weight standard. Data was compiled and bar graphed as % PF4 for the tetramer, trimer, dimer, and monomer as a function of concentration for the test and control samples.
This experiment was performed in a manner similar to experiment 1, but PF4 (10 μg/ml) in PBS was independently incubated with compounds of Examples 1-38, 65-196, and 209-228 for 60 min at room temperature, followed by the addition of cross-linking reagent bis(sulfosuccinimidyl)suberate (0.2 mM) for 30 min at room temperature. The reaction was stopped by adding NuPAGE® lithium dodecyl sulfate (LDS) sample buffer, and denatured by heating to 70° C. for 10 min according to the manufacturer's instructions. […]

inhibition at 5 µM	inhibition at 10 µM	inhibition at 1 µM	inhibition at 3 µM	Compound	IC50
50%	71%	–	–	C=CCNC(=O)C1C(=O)c2ccc(C(=O)c3ccc4c(c3)C(=O)C(C(=O)NCC=C)C4=O)cc2C1=O (centres unmarked) [Example 65, 5,5′-carbonylbis(n-allyl-1,3-dioxo-2,3-dihydro-1h-indene-2-carboxamide)]	–
29%	56%	–	–	O=C(c1ccc2c(c1)C(=O)C(C(=O)NCc1ccco1)C2=O)c1ccc2c(c1)C(=O)C(C(=O)NCc1ccco1)C2=O (centres unmarked) [Example 19, 5,5′-carbonylbis(1,3-dioxo-indan-2-carboxylic acid (furan-2-ylmethyl)-amide)]	–
–	–	20%	20%	O=C(c1ccc2c(c1)C(=O)C(C(=O)CCC(=O)c1cccc(Cl)c1Cl)C2=O)c1ccc2c(c1)C(=O)C(C(=O)CCC(=O)c1cccc(Cl)c1Cl)C2=O (centres unmarked) [Example 253, 2-[4-(2,3-dichlorophenyl)-4-oxobutanoyl]-5-{2-[4-(2,3-dichlorophenyl)-4-oxobutanoyl]-1,3-dioxo-2,3-dihydro-1H-indene-5-carbonyl}-2,3-dihydro-1H-indene-1,3-dione]	–
–	–	2%	5%	COCCOCCNCC(=O)C1C(=O)c2ccc(Oc3ccc4c(c3)C(=O)C(C(=O)CNCCOCCOC)C4=O)cc2C1=O (centres unmarked) [Example 394, 2-(2-{[2-(2-methoxyethoxy)ethyl]amino}acetyl)-5-{[2-(2-{[2-(2-methoxyethoxy)ethyl]amino}acetyl)-1,3-dioxo-2,3-dihydro-1H-inden-5-yl]oxy}-2,3-dihydro-1H-indene-1,3-dione]	–
88%	90%	–	–	CC(C)C(=O)NCC(=O)C1C(=O)c2ccc(C(=O)c3ccc4c(c3)C(=O)C(C(=O)CNC(=O)C(C)C)C4=O)cc2C1=O (centres unmarked) [Example 187, 2-methyl-N-[2-(5-{2-[2-(2-methylpropanamido)acetyl]-1,3-dioxo-2,3-dihydro-1H-indene-5-carbonyl}-1,3-dioxo-2,3-dihydro-1H-inden-2-yl)-2-oxoethyl]propanamide]	2.6 µM
–	–	15%	21%	CC[C@H](C)[C@H](NC(=O)C1C(=O)c2ccc(S(=O)(=O)c3ccc4c(c3)C(=O)C(C(=O)N[C@H](C(=O)OC)[C@@H](C)CC)C4=O)cc2C1=O)C(=O)OC (stereo partly drawn) [Example 333, methyl (2S,3S)-2-({5-[(2-{[(2S,3S)-1-methoxy-3-methyl-1-oxopentan-2-yl]carbamoyl}-1,3-dioxo-2,3-dihydro-1H-inden-5-yl)sulfonyl]-1,3-dioxo-2,3-dihydro-1H-inden-2-yl}formamido)-3-methylpentanoate]	–
–	–	–	–	CC(C)(C)OC(=O)N1CCSC1C(=O)C1C(=O)c2ccc(C(=O)c3ccc4c(c3)C(=O)C(C(=O)C3SCCN3C(=O)OC(C)(C)C)C4=O)cc2C1=O (centres unmarked) [Example 124, tert-butyl 2-[5-(2-{3-[(tert-butoxy)carbonyl]-1,3-thiazolidine-2-carbonyl}-1,3-dioxo-2,3-dihydro-1H-indene-5-carbonyl)-1,3-dioxo-2,3-dihydro-1H-indene-2-carbonyl]-1,3-thiazolidine-3-carboxylate]	6.3 µM
–	–	25%	35%	CCNC(=O)C1C(=O)c2ccc(S(=O)(=O)c3ccc4c(c3)C(=O)C(C(=O)NCC)C4=O)cc2C1=O (centres unmarked) [Example 336, N-ethyl-5-{[2-(ethylcarbamoyl)-1,3-dioxo-2,3-dihydro-1H-inden-5-yl]sulfonyl}-1,3-dioxo-2,3-dihydro-1H-indene-2-carboxamide]	–
–	–	17%	30%	CC(C)OC/C(O)=C1/C(=O)c2ccc(C(=O)c3ccc4c(c3)C(=O)/C(=C(/O)COC(C)C)C4=O)cc2C1=O [Example 380, 5-{1,3-dioxo-2-[2-(propan-2-yloxy)acetyl]-2,3-dihydro-1H-indene-5-carbonyl}-2-[2-(propan-2-yloxy)acetyl]-2,3-dihydro-1H-indene-1,3-dione]	–
–	–	7%	19%	COCCOCCNC(=O)C1C(=O)c2ccc(C#Cc3ccc4c(c3)C(=O)C(C(=O)NCCOCCOC)C4=O)cc2C1=O (centres unmarked) [Example 381, N-[2-(2-methoxyethoxy)ethyl]-5-[2-(2-{[2-(2-methoxyethoxy)ethyl]carbamoyl}-1,3-dioxo-2,3-dihydro-1H-inden-5-yl)ethynyl]-1,3-dioxo-2,3-dihydro-1H-indene-2-carboxamide]	–
95%	95%	–	–	CC(C)(C)CC(=O)NCC(=O)C1C(=O)c2ccc(S(=O)(=O)c3ccc4c(c3)C(=O)C(C(=O)CNC(=O)CC(C)(C)C)C4=O)cc2C1=O (centres unmarked) [Example 186, N-{2-[5-({2-[2-(3,3-dimethylbutanamido)acetyl]-1,3-dioxo-2,3-dihydro-1H-inden-5-yl}sulfonyl)-1,3-dioxo-2,3-dihydro-1H-inden-2-yl]-2-oxoethyl}-3,3-dimethylbutanamide]	2.6 µM
12%	58%	–	–	CCOC(=O)CNC(=O)C1C(=O)c2ccc(C(=O)c3ccc4c(c3)C(=O)C(C(=O)NCC(=O)OCC)C4=O)cc2C1=O (centres unmarked) [Example 30, 5,5′-5,5′-carbonylbis([(1,3-dioxo-indane-2-carbonyl)-amino]-acetic acid ethyl ester)]	–

Compound	inhibition at 5 µM	inhibition at 10 µM	inhibition at 1 µM	inhibition at 3 µM	IC50
CO[C@@H](C(=O)C1C(=O)c2ccc(C(=O)c3ccc4c(c3)C(=O)C(C(=O)[C@H](OC)c3ccccc3)C4=O)cc2C1=O)c1ccccc1 (stereo partly drawn) [Example 119, 2-[(2R)-2-methoxy-2-phenylacetyl]-5-{2-[(2R)-2-methoxy-2-phenylacetyl]-1,3-dioxo-2,3-dihydro-1H-indene-5-carbonyl}-2,3-dihydro-1H-indene-1,3-dione]	83%	90%	–	–	4 µM
CC(C)(C)OC(=O)N1CSC[C@@H]1C(=O)C1C(=O)c2ccc(S(=O)(=O)c3ccc4c(c3)C(=O)C(C(=O)[C@H]3CSCN3C(=O)OC(C)(C)C)C4=O)cc2C1=O (stereo partly drawn) [Example 221, tert-butyl (4S)-4-[5-({2-[(4S)-3-[(tert-butoxy)carbonyl]-1,3-thiazolidine-4-carbonyl]-1,3-dioxo-2,3-dihydro-1H-inden-5-yl}sulfonyl)-1,3-dioxo-2,3-dihydro-1H-indene-2-carbonyl]-1,3-thiazolidine-3-carboxylate]	92%	97%	–	–	2.3 µM
CCC(=O)C1C(=O)c2ccc(S(=O)(=O)c3ccc4c(c3)C(=O)C(C(=O)CC)C4=O)cc2C1=O (centres unmarked) [Example 325, 5-[(1,3-dioxo-2-propanoyl-2,3-dihydro-1H-inden-5-yl)sulfonyl]-2-propanoyl-2,3-dihydro-1H-indene-1,3-dione]	–	34%	–	–	–
